Assay [1] deals with T1, Neuronal acetylcholine receptor subunit alpha-7 (Rattus norvegicus, UniProt Q05941). The experiment in a line: Displacement of [125I]alpha-bungarotoxin from rat alpha7 nAChR.
Assay [2] addresses Neuronal acetylcholine receptor; alpha4/beta2 (Rattus norvegicus, UniProt P09483+P12390). Put plainly: Displacement of [3H]epibatidine from rat alpha4beta2 nAChR. The class given is protein-complex assay.
Assay [3] addresses T1, Neuronal acetylcholine receptor subunit alpha-7. Put plainly: Displacement of [3H]MLA from rat alpha7 nAChR.

For six molecules, Ki results are on record in ChEMBL document CHEMBL1156085, “Design of novel alpha7-subtype-preferring nicotinic acetylcholine receptor agonists: application of docking and MM-PBSA computational approaches, synthetic and pharmacological studies” (Bioorg Med Chem Lett, 2009).

T1 sequence (Q05941 whole entry): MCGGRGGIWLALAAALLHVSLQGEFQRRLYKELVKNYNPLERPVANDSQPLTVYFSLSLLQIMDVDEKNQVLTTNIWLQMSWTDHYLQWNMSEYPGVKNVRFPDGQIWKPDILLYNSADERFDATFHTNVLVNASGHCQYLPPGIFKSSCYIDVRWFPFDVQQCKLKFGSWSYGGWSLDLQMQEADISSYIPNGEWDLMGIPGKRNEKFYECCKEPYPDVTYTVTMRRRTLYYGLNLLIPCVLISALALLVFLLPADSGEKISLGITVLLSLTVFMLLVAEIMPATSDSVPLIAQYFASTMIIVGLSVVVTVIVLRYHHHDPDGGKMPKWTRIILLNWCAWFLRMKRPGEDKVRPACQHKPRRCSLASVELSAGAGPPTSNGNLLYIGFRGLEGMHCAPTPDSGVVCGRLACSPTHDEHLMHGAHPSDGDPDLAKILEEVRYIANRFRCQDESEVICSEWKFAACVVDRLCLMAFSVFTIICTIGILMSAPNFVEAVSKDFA
Sequence of Neuronal acetylcholine receptor; alpha4/beta2 (P09483 whole entry): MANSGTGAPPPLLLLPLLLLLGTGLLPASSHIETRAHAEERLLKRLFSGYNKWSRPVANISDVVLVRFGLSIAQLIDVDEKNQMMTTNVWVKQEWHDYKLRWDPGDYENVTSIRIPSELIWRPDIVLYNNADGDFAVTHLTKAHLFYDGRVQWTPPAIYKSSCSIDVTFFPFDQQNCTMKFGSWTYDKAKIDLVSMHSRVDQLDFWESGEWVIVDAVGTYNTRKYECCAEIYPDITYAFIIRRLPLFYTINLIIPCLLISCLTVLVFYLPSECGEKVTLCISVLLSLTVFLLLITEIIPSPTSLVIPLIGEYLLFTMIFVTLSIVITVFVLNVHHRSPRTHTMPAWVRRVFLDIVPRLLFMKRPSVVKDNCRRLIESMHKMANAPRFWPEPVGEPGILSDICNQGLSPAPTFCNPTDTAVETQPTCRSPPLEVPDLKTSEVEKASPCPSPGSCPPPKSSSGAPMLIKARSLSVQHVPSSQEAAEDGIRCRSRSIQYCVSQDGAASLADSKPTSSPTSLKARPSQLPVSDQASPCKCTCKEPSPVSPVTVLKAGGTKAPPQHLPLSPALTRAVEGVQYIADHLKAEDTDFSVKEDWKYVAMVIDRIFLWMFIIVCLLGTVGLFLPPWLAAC
Sequence of Neuronal acetylcholine receptor; alpha4/beta2 (P12390 whole entry): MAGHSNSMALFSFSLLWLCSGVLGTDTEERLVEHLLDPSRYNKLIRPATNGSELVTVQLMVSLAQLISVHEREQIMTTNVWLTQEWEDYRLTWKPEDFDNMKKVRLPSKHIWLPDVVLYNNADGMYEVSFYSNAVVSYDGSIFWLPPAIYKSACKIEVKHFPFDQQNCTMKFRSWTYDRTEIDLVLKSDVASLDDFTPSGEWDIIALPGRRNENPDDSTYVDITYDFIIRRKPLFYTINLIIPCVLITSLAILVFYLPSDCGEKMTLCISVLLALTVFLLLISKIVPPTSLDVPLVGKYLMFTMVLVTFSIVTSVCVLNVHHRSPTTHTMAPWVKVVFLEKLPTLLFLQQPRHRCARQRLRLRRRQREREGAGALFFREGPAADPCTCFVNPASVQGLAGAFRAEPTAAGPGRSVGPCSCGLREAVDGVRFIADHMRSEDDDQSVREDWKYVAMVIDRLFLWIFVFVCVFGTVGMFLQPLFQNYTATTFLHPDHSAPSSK

Broadly, the Ki is the equilibrium dissociation constant of an inhibitor or competing ligand from its target. High values mean a looser hold on the target, low ones a stronger hold on the target. In the case of `C[N+]12C=C(c3ccc(N4CCOCC4)nc3)C(CC1)CC2`, the Ki is 5.6 µM in assay [1] and 22 µM in assay [2].
Regarding `C1=C(c2cccnc2)C2CCN1CC2`, the inhibitory constant (Ki) in assay [1] came out at 0.14 µM; in assay [3], 0.085 µM; in assay [2] it was 0.11 µM.
For `C1=C(c2ccc(N3CCOCC3)nc2)C2CCN1CC2`, the values for the Ki in assay [1] and in assay [2] were 0.4 µM and 3.1 µM, respectively.
Take `c1cc(N2CCOCC2)ncc1C1CN2CCC1CC2` (stereo not drawn): the inhibitory constant (Ki) in assay [1] was 0.35 µM; in assay [2], 21 µM.
For `C1=C(c2ccc(N3CCOCC3)nc2)C2CCC1N2` (stereo not drawn) the same measures were 33 µM and 12 µM.
On to `C[N+]12CCC(CC1)C(c1ccc(N3CCOCC3)nc1)C2` (stereo not drawn), for which the inhibition constant Ki in assay [1] came out at 6.1 µM; in assay [2], 25 µM.
